From patent publication US5348956A, “Substituted cyclopropylamino-1,3,5-triazines” (UCB S.A., priority 1991, dated 1994)
Where a name gives a salt, the structure may show the parent alone. Read-outs that look alike come from different tables or passages of the source.

Tests used:
[1] = test system: longitudinal muscles of the ileum contracted by histamine; assay: potentiation of the myorelaxing effect of isoprenaline on the ileum; assay type: cell-based, Dunkin-Hartley guinea-pigs; conditions: with isoprenaline 10^-7 mole/l; histamine 3.2 μmoles/l
Experimental: (cf. R. A. TURNER, "Screening Methods in Pharmacology", Ed. Acad. Press, San Diego, 1965, chapter IV, pages 43-47). […] Inhibition cycle: When the successive contractions induced by the histamine injections have become reproducible, the compound to be tested is injected immediately after the second wash. The contraction induced by the following injection of histamine is measured and compared with the average of the three preceding contractions caused by the repeated injections of histamine (control contractions). From the result obtained, the percentage inhibition of the contraction is calculated. Several cycles of histamine injection are then performed again, until the contractions of the muscle become reproducible again; the muscle is then ready for testing of another compound. The potentiating effect of a compound is measured in the course of a so-called "potentiation" cycle, which comprises three successive inhibition cycles. […] In the course of the second inhibition cycle, the percentage inhibition of the contraction obtained with the compound to be tested, injected alone at a given dose, is determined. In the third inhibition cycle, isoprenaline and the compound to be tested are injected simultaneously, and the percentage inhibition of the contraction is calculated for the dose used of the compound tested. The same experiments are repeated for each of the doses of the compounds tested.

toxicity, Irwin's test = assay type: in vivo; conditions: i.p.; death of two animals out of three within 48 hours
Experimental: Progressive doses of the compound to be tested are administered intraperitoneally to groups of three mice until the lethal dose is reached (dose which causes the death of two animals out of three within 48 hours).

[2] = test system: plantar edema induced by immune complexes; assay: "reverse passive Arthus" (RPA) test, anti-inflammatory and anti-edema activity; assay type: in vivo, Sprague-Dawley rat; conditions: Rattus norvegicus, intravenous
Experimental: The reaction between a soluble antigen and antibodies in the organism may lead to an acute inflammatory reaction accompanied by release of histamine, modification of vascular permeability and formation of a localized edema. […] To this end, the Arthus reaction is induced by subplantar administration of 0.1 ml of heterologous antivalbumin reaginic serum into the right hind paw and by simultaneous intravenous injection of 1 ml/kg ovalbumin (25 mg/ml). The compound to be tested is administered intravenously 30 seconds before induction of the Arthus reaction, in a least 3 different doses. A group of 6 rats is used per dose of compound to be tested. The volume of the paw is measured by plethysmometry before the Arthus reaction and 3 to 5 hours after induction of the Arthus reaction, both in the control animals and in the treated animals. The effect of a compound on the reduction in the edema for each dose and at each measurement time (3 hours and 5 hours) is expressed in % of the edema observed in the control animals. The doses of the compounds (ID30 in μmole/kg) which inhibit by 30%, on average over all the animals, the volume of the edema observed in the control animals are given in Table VII below.

[3] = test system: bronchospasm induced by acetylcholine; assay: bronchospasmolytic activity (Konzett and Roessler), bronchospasm induced by acetylcholine; assay type: in vivo, Dunkin-Hartley guinea-pig; conditions: Cavia porcellus; intravenous; acetylcholine-induced bronchospasm; read-out: Doses (ID50), Acetylcholine
Experimental: (§1) This activity was measured in the Dunkin-Hartley guinea-pig by the method of H. KONZETT and […] (Naunyn Schmiedebergs Arch. exp. Path. […] The anesthetized (urethane) and curarized (gallamine) guinea-pig is placed under assisted respiration. The endotracheal pressure is recorded. […] The compound to be tested is also administered intravenously two minutes before the administration of the spasmogen and then in 3 to 4 cumulative doses in increasing amounts at intervals of 15 minutes. Six animals per compound to be tested and per spasmogen are used.

[4] = test system: bronchospasm induced by histamine; assay: bronchospasmolytic activity (Konzett and Roessler), bronchospasm induced by histamine; assay type: in vivo, Dunkin-Hartley guinea-pig; conditions: Cavia porcellus; intravenous; histamine-induced bronchospasm; read-out: Doses (ID50), Histamine
Experimental: as §1

[5] = test system: anaphylactic release of histamine, guinea-pig lung sections; assay: potentiation of the inhibition of anaphylactic histamine release by isoprenaline; assay type: cell-based, Dunkin-Hartley guinea-pigs; conditions: with isoprenaline 10^-7 mole per liter
Experimental: (§2) Dunkin-Hartley guinea-pigs which are first passively sensitized by an intravenous injection of 1 ml of isologous antiovalbumin serum are used. Twenty-four hours after the injection, the lungs are then perfused with a Tyrode buffer to evacuate the blood, and then removed and cut into sections of 1 mm. These sections are divided up into test tubes (3 sections per tube) to give 10 experimental groups of lung sections per guinea-pig. A "positive" control group of lung sections is stimulated by addition of an ovalbumin solution (0.1 mg/ml) to induce the anaphylactic release of histamine and serves to determine the maximum amount of histamine (100%) which can be released. A "negative" control group which is not stimulated by ovalbumin serves to determine the naturally released amount of histamine (spontaneous release). In three other groups, the lung sections are incubated at 37° C. for 30 minutes in the ovalbumin solution in the presence of three different doses of the compound to be tested (one dose per group). […] At this dose, isoprenaline inhibits the release of histamine by 30 to 40%, which is verified on a control group treated only with isoprenaline alone at this dose. In addition, a supplementary control group which is not stimulated by ovalbumin is used to detect a possible spontaneous release of histamine by the highest dose of the compound tested. In each group, the histamine released in the incubation medium is measured by spectrofluorometry (D. P. EVANS et al., Life Sci., 12, (1973), 327-336).

[6] = test system: bronchospasm induced by serotonin; assay: bronchospasmolytic activity (Konzett and Roessler), bronchospasm induced by serotonin; assay type: in vivo, Dunkin-Hartley guinea-pig; conditions: Cavia porcellus; intravenous; serotonin-induced bronchospasm; read-out: Doses (ID50), Serotonin
Experimental: as §1

[7] = test system: anaphylactic release of histamine, guinea-pig lung sections; assay: inhibition of the anaphylactic release of histamine (proper effect); assay type: cell-based, Dunkin-Hartley guinea-pigs; conditions: Cavia porcellus, in vitro, read-out: Minimum inhibitory dose (MID)
Experimental: as §2

serotonergic activity = assay: "wet dog shake" (WDS) behavior, serotonergic activity; assay type: in vivo, male Sprague-Dawley rats
Experimental: A decrease in serotonergic activity has been correlated with the occurrence of affective disorders, such as depression and anxiety. […] The test is carried out in the morning on male Sprague-Dawley rats (±180 g), divided the previous day into groups of 8 animals in residence cages. The cage used for the tests is a transparent enclosure of 12×24×30 cm in height, the floor of which is covered with a layer of sand. The compounds to be tested, dissolved either in physiological salt solution or in a citrate buffer of pH 5, are administered intraperitoneally in a different dose for each group treated. The control groups receive an intraperitoneal injection of the same vehicle (either physiological salt solution or citrate buffer). […] The mean values of the results are calculated and analyzed statistically by the Mann-Whitney method. The mean values of the number of shakes obtained for the compounds according to the invention administered intraperitoneally at the doses indicated (in mg/kg) are given in Table V below.

[8] = 3 hours after induction of the Arthus reaction, read-out: Dose (ID30), 3 hours
[9] = 5 hours after induction of the Arthus reaction, read-out: Dose (ID30), 5 hours

SMILES	Minimum potentiating dose (MPD) [1] [µmol/L]	Lethal dose (toxicity, Irwin's test) [mg/kg]	ED30 [2, 8] [µmol/kg]	ED30 [2, 9] [µmol/kg]	ED50 [3] [µmol/kg]	ED50 [4] [µmol/kg]	Minimum potentiating dose (MPD) [5] [µmol/L]	ED50 [6] [µmol/kg]	minimal effective concentration [7] [µM]	also measured
[O-][S+]1CCN(c2nc(NC3CC3)nc(C3CC3)n2)CC1 [Compound 19, 2-Cyclopropyl-4-cyclopropylamino-6-thiomorpholino-1,3,5-triazine S-oxide]	0.32	175.6	0.02	0.02	0.1	0.02	0.1	0.04	1	Average number of shakes (serotonergic activity; 0.94 mg/kg i.p., counted over 30 minutes): 16.0 ± 4.7 shakes
CC1(c2nc(NC3CC3)nc(N3CCOCC3)n2)CC1 [Compound 24, 2-Cyclopropylamino-4-(1-methylcyclopropyl)-6-morpholino-1,3,5-triazine]		825				0.04	0.32		0.032	Average number of shakes (serotonergic activity; 2.75 mg/kg i.p., counted over 30 minutes): 6.1 ± 2.3 shakes
O=S1(=O)CCN(c2nc(NC3CC3)nc(C3CCC3)n2)CC1 [Compound 26, 2-Cyclobutyl-4-cyclopropylamino-6-thiomorpholino-1,3,5-triazine S,S-dioxide hydrochloride]		201.5				0.03	0.32		1	Average number of shakes (serotonergic activity; 1.15 mg/kg i.p., counted over 30 minutes): 11.8 ± 4.3 shakes
O=C1CN(c2nc(NC3CC3)nc(C3CC3)n2)C1 [Compound 17]	0.32	281.5	1	1	0.2	0.1	1.0	0.2	3.2	Average number of shakes (serotonergic activity; 2.8 mg/kg i.p., counted over 30 minutes): 10.5 ± 2.9 shakes
C1CCC(c2nc(NC3CC3)nc(N3CCOCC3)n2)C1 [Compound 8]		326	4	4	0.2	0.1	10.0	0.3	1	
[O-][S+]1CCN(c2nc(NC3CC3)nc(C3CC3)n2)C1 (centres unmarked) [Compound 23, 2-Cyclopropyl-4-cyclopropylamino-6-(3-thiazolidinyl)-1,3,5-triazine S-oxide]		156								
C1CN(c2nc(NC3CC3)nc(C3CC3)n2)CS1 [Compound 21, 2-Cyclopropyl-4-cyclopropylamino-6-(3-thiazolidinyl)-1,3,5-triazine]		263					0.32		0.1	Average number of shakes (serotonergic activity; 2.63 mg/kg i.p., counted over 30 minutes): 5.5 ± 2.0 shakes
O=S1(=O)CCN(c2nc(NC3CC3)nc(C3CC3)n2)C1 [Compound 22, 2-Cyclopropyl-4-cyclopropylamino-6-(3-thiazolidinyl)-1,3,5-triazine S,S-dioxide]		295					0.032		0.1	Average number of shakes (serotonergic activity; 0.95 mg/kg i.p., counted over 30 minutes): 8.1 ± 1.7 shakes
O=S1(=O)CCN(c2nc(NC3CC3)nc(C3CC3)n2)CC1 [Compound 20, 2-Cyclopropyl-4-cyclopropylamino-6-thiomorpholino-1,3,5-triazine S,S-dioxide]	0.1	185	1	0.5	0.1	0.03	0.32	0.4	1	Average number of shakes (serotonergic activity; 0.99 mg/kg i.p., counted over 30 minutes): 13.6 ± 2.3 shakes
CC1CC1c1nc(NC2CC2)nc(N2CCOCC2)n1.Cl (centres unmarked) [Compound 25, 2-Cyclopropylamino-4-(2-methylcyclopropyl)-6-morpholino-1,3,5-triazine hydrochloride]		99.7					0.032		0.032	Average number of shakes (serotonergic activity; 1.0 mg/kg i.p., counted over 30 minutes): 19.6 ± 5.0 shakes
N[C@@H](Cc1c[nH]c2ccc(O)cc12)C(=O)O [5-HTP/carbidopa, 5-hydroxytryptophan, reference compound]										Average number of shakes (serotonergic activity; 5-HTP 100.0 mg/kg i.p. after carbidopa 25 mg/kg i.p., measured 90 to 120 minutes after 5HTP): 4.7 ± 1.5 shakes; Average number of shakes (serotonergic activity; 5-HTP 200.0 mg/kg i.p. after carbidopa 25 mg/kg i.p., measured 90 to 120 minutes after 5HTP): 19.6 ± 3.0 shakes
C1CN(c2nc(NC3CC3)nc(C3CC3)n2)CCS1 [Compound 18, 2-Cyclopropyl-4-cyclopropylamino-6-thiomorpholino-1,3,5-triazine]	0.1	277	1	1		0.003	1.0		0.1	Average number of shakes (serotonergic activity; 0.88 mg/kg i.p., counted over 30 minutes): 10.6 ± 3.0 shakes
